Drawing on patent US11306079B2, “3-(5-amino-pyrazin-2-yl)-benzenesulfonamide derivatives and related compounds as PI3K-gamma kinase inhibitors” (Incyte Corporation, priority 2017, dated 2022), this text covers IC50 for 20 compounds.

For test [1], the target named is PI3Kδ (p110δ/p85α) Recombinant Human Protein (Homo sapiens (Human), UniProt O00329). Briefly: PI3Kδ Scintillation Proximity Assay. The class given is biochemical. To be noted: 20 μM PIP2, 2 μM ATP, 3.4 nM PI3Kδ, 120 min, room temperature. An outline of the steps:
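IC50 was fitted to percent solvent-control activity from SPA scintillation counts after WGA bead capture of 33P-labelled lipid product. Reaction: 120 min, room temperature, 3.4 nM p110δ/p85α, 20 μM PIP2, 2 μM ATP with tracer, MOPS pH 6.7 buffer containing MgCl2, DTT, CHAPS, 2% DMSO.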
In general terms: SPA uses beads or plates that emit light when radiolabelled molecules are held near them.

The target of test [2] is PI3Kγ (p110γ) Recombinant Human Protein (Homo sapiens (Human), UniProt P48736). Briefly: PI3K-γ Scintillation Proximity Assay. It is filed as biochemical. To be noted: 20 μM PIP2, 2 μM ATP, 13 nM PI3Kγ, 120 min, room temperature. In short, it runs like this:
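Recombinant human p110γ (13 nM) phosphorylated 20 μM PIP2 with 2 μM ATP plus [γ-33P]ATP in 20 mM MOPS pH 6.7, 10 mM MgCl2, 5 mM DTT, 0.03% CHAPS, 2% DMSO, 120 min at room temperature. Radiolabelled product was captured on WGA SPA beads and counted. IC50 came from curves of percent solvent-control activity.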

Test [3] relates to Phosphorylated Ribosomal Protein S6 (RPS6) in THP-1 cells. The experiment in a line: THP-1 RPS6 ELISA Assay. Particulars: Homo sapiens; serum starved THP-1 cells, 2 hours with compound, 10 nM MCP-1 for 15 minutes, Phospho-RPS6 ELISA; read-out: PI3Kγ_THP1_RPS6_ELISA IC50. It is filed as cell-based. An outline of the steps:
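Phospho-RPS6 in lysates measured by ELISA at 450 nm, corrected at 540 nm, after MCP-1 challenge (10 nM, 15 min) of THP-1 cells that were starved overnight and exposed to test compound for 2 h at 37° C, 2×10^5 cells/well. Curve fit of percent inhibition gives IC50.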

For orientation: IC50 means the concentration at which inhibition is half-maximal.

Each structure is given as a SMILES string. Counter-ions that a name gives are not always drawn.

Sequence of PI3Kδ (p110δ/p85α) Recombinant Human Protein (O00329 whole entry): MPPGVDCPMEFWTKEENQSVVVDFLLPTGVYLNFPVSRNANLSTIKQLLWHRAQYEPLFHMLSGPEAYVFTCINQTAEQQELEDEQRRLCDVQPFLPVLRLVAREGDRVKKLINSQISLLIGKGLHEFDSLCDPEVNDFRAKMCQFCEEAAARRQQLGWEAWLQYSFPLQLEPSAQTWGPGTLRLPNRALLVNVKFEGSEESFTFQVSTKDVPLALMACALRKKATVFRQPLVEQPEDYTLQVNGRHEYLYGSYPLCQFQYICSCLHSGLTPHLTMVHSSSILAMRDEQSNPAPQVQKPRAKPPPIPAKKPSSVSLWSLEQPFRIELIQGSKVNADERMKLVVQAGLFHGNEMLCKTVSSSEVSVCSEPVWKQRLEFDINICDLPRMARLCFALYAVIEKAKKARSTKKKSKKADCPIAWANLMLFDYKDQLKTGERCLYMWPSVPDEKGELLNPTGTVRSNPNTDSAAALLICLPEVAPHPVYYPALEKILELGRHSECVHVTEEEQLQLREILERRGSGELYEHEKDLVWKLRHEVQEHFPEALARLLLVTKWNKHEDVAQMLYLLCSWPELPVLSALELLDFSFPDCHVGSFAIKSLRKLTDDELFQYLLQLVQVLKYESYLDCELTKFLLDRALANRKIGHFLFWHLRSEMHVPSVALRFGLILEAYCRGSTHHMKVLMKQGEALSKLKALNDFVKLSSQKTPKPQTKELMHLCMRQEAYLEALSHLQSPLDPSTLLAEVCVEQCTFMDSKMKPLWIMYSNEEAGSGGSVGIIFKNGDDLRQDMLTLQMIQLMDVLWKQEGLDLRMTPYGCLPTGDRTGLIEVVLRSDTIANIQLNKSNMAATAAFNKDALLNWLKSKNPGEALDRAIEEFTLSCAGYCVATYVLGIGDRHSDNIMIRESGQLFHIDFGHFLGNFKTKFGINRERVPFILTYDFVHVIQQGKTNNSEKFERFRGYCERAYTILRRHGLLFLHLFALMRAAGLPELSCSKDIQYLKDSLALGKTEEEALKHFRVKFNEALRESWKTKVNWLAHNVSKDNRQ
Sequence of PI3Kδ (p110δ/p85α) Recombinant Human Protein (P27986 whole entry partner): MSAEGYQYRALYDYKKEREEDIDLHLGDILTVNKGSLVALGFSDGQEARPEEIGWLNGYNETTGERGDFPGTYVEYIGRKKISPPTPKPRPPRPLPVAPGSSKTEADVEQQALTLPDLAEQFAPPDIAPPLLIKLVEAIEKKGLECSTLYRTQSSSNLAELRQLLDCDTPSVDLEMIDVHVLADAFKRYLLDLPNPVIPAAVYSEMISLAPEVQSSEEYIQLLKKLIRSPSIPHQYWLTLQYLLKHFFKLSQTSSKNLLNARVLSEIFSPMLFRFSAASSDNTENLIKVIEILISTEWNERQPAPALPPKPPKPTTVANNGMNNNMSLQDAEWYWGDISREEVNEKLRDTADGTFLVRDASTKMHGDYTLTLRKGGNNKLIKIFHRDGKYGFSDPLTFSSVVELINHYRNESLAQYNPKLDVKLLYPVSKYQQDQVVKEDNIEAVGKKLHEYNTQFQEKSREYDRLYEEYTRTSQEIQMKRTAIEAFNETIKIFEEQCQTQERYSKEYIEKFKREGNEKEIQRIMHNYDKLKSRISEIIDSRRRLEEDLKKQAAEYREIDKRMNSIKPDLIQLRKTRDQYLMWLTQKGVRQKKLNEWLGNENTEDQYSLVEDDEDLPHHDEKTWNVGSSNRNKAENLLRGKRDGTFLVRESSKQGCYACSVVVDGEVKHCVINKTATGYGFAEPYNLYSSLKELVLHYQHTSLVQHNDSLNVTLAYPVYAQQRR
Sequence of PI3Kγ (p110γ) Recombinant Human Protein (P48736 whole entry): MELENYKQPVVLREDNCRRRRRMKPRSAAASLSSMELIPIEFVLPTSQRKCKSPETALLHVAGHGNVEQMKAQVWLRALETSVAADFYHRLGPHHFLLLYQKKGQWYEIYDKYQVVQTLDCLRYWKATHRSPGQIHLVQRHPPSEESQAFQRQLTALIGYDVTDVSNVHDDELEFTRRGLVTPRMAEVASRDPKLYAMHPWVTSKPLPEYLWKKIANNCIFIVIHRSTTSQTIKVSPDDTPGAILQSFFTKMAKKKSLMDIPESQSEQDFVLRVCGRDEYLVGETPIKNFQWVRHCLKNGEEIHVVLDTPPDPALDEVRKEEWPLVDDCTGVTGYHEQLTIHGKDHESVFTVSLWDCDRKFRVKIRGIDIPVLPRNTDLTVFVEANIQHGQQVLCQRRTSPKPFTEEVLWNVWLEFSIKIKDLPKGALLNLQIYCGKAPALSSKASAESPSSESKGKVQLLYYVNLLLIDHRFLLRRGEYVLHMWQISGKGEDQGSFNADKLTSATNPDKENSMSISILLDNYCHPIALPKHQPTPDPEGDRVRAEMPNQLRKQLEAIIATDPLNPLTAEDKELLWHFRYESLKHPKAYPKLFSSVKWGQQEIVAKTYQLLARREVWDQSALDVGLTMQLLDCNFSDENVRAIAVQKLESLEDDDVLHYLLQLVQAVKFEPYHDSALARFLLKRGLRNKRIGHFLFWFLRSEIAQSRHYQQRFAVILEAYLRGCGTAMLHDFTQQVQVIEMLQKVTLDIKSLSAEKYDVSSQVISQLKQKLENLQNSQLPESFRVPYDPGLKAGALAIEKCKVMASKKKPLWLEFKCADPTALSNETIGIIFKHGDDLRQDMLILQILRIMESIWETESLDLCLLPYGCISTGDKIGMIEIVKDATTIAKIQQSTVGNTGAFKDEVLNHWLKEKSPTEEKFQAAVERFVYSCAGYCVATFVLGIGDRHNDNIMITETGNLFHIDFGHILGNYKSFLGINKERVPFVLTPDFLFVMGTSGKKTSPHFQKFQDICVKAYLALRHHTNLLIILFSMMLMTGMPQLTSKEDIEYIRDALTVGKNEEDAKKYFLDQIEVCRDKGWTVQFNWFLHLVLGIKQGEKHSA

Consider `Cc1ncc(-c2nc(-c3cc(S(=O)(=O)NC45CCC(CO)(C4)C5)ccc3C)cnc2N)s1` [Example 5, 3-(5-Amino-6-(2-methylthiazol-5-yl)pyrazin-2-yl)-N-(4-(hydroxymethyl)bicyclo[2.1.1]hexan-1-yl)-4-methylbenzenesulfonamide trifluoroacetate salt], for which the IC50 in test [1], in test [2] and in test [3] was not above 100 nM throughout.
On to `Cc1ccc(S(=O)(=O)NC23CC(CO)(C2)C3)cc1-c1cnc(N)c(-n2cncn2)n1` [Example 24, 3-(5-Amino-6-(1H-1,2,4-triazol-1-yl)pyrazin-2-yl)-N-(3-(hydroxymethyl)bicyclo[1.1.1]pentan-1-yl)-4-methylbenzenesulfonamide trifluoroacetate salt], for which the IC50 is not above 500 nM in test [1], not above 100 nM in test [2] and not above 100 nM in test [3].
For the compound `CCOC(=O)NC12CC(NS(=O)(=O)c3ccc(C)c(-c4cnc(N)c(-n5cncn5)n4)c3)(C1)C2` [Example 39, Ethyl 3-(3-(5-amino-6-(1H-1,2,4-triazol-1-yl)pyrazin-2-yl)-4-methylphenylsulfonamido)bicyclo[1.1.1]pentan-1-ylcarbamate Trifluoroacetate Salt], the IC50 in test [1] was not above 500 nM; in test [2], not above 100 nM; in test [3] it was not above 500 nM.
Regarding `[2H]C([2H])([2H])c1ccc(S(=O)(=O)NC23CC(C#N)(C2)C3)cc1-c1cnc(N)c(-n2cncn2)n1` [Example 48, 3-(5-Amino-6-(1H-1,2,4-triazol-1-yl)pyrazin-2-yl)-N-(3-cyanobicyclo[1.1.1]pentan-1-yl)-4-(methyl-d3)benzenesulfonamide Trifluoroacetate Salt], the IC50 in test [1] is not above 500 nM; in test [2], not above 100 nM; in test [3], not above 100 nM.
Turning to `Cc1ccc(S(=O)(=O)NC23CC(C#N)(C2)C3)cc1-c1cnc(N)c(-c2ncn(C)n2)n1` [Example 45, 3-(5-Amino-6-(1-methyl-1H-1,2,4-triazol-3-yl)pyrazin-2-yl)-N-(3-cyanobicyclo[1.1.1]pentan-1-yl)-4-methylbenzenesulfonamide Trifluoroacetate Salt], the IC50 in test [1] was not above 500 nM; in test [2] it was not above 100 nM; in test [3], not above 500 nM.
Consider `[2H]C([2H])([2H])c1ccc(S(=O)(=O)NC23CCC(C#N)(C2)C3)cc1-c1cnc(N)c(-c2cnc(C)o2)n1` [Example 66, 3-(5-Amino-6-(2-methyloxazol-5-yl)pyrazin-2-yl)-N-(4-cyanobicyclo[2.1.1]hexan-1-yl)-4-(methyl-d3)benzenesulfonamide trifluoroacetate salt], for which the IC50 in test [1], in test [2] and in test [3] was not above 100 nM in each case.
Turning to `Cc1ccc(S(=O)(=O)NC23COC(C)(C2)C3)cc1-c1cnc(N)c(-c2cn(C)nc2C)n1` [Example 12, 3-(5-Amino-6-(1,3-dimethyl-1H-pyrazol-4-yl)pyrazin-2-yl)-4-methyl-N-(1-methyl-2-oxabicyclo[2.1.1]hexan-4-yl)benzenesulfonamide trifluoroacetate salt], the IC50 in test [1] is not above 500 nM; in test [2] it was not above 100 nM; in test [3], not above 500 nM.
Turning to `Cc1ncc(-c2nc(-c3cc(S(=O)(=O)NC45COC(CO)(C4)C5)ccc3C)cnc2N)s1` [Example 4, 3-(5-Amino-6-(2-methylthiazol-5-yl)pyrazin-2-yl)-N-(1-(hydroxymethyl)-2-oxabicyclo[2.1.1]hexan-4-yl)-4-methylbenzenesulfonamide trifluoroacetate salt], the IC50 in test [1], in test [2] and in test [3] was not above 100 nM each time.
For `[2H]C([2H])([2H])c1ccc(S(=O)(=O)NC23CCC(C#N)(C2)C3)cc1-c1cnc(N)c(-c2cnco2)n1` [Example 69, 3-(5-Amino-6-(oxazol-5-yl)pyrazin-2-yl)-N-(4-cyanobicyclo[2.1.1]hexan-1-yl)-4-(methyl-d3)benzenesulfonamide trifluoroacetate salt], the IC50 in test [1], in test [2] and in test [3] was not above 100 nM each time.
Turning to `[2H]C([2H])([2H])c1ccc(S(=O)(=O)NC23CC(CO)(C2)C3)cc1-c1cnc(N)c(-c2ccnc(SC)n2)n1` [Example 78, 3-(5-Amino-6-(2-(methylthio)pyrimidin-4-yl)pyrazin-2-yl)-N-(3-(hydroxymethyl)bicyclo[1.1.1]pentan-1-yl)-4-(methyl-d3)benzenesulfonamide], the IC50 in test [1], in test [2] and in test [3] was not above 100 nM throughout.
In the case of `[2H]C([2H])([2H])c1ccc(S(=O)(=O)NC23CC(C#N)(C2)C3)cc1-c1cnc(N)c(-c2ccnc(SC)n2)n1` [Example 76, 3-(5-Amino-6-(2-(methylthio)pyrimidin-4-yl)pyrazin-2-yl)-N-(3-cyanobicyclo[1.1.1]pentan-1-yl)-4-(methyl-d3)benzenesulfonamide], the IC50 in test [1], in test [2] and in test [3] was not above 100 nM throughout.
`Cc1ccc(S(=O)(=O)NC23CCC(O)(C2)C3)cc1-c1cnc(N)c(-n2cncn2)n1` [Example 30, 3-(5-Amino-6-(1H-1,2,4-triazol-1-yl)pyrazin-2-yl)-N-(4-hydroxybicyclo[2.1.1]hexan-1-yl)-4-methylbenzenesulfonamide Trifluoroacetate Salt]: the IC50 in test [1] is not above 500 nM; in test [2], not above 100 nM; in test [3] it was not above 500 nM.
For `Cc1ccc(S(=O)(=O)NC23CNC(C2)C3)cc1-c1cnc(N)c(-c2ncn(C)n2)n1` [Example 57, 3-(5-Amino-6-(1-methyl-1H-1,2,4-triazol-3-yl)pyrazin-2-yl)-N-(2-azabicyclo[2.1.1]hexan-4-yl)-4-methylbenzenesulfonamide trifluoroacetate salt], the IC50 in test [1] was not above 100 nM; in test [2], not above 100 nM; in test [3], not above 500 nM.
For `Cc1ccc(S(=O)(=O)NC23CCC(CO)(CC2)OC3)cc1-c1cnc(N)c(-c2ccnc(C#N)c2)n1` [Example 19, 3-(5-Amino-6-(2-cyanopyridin-4-yl)pyrazin-2-yl)-N-(1-(hydroxymethyl)-2-oxabicyclo[2.2.2]octan-4-yl)-4-methylbenzenesulfonamide trifluoroacetate salt], the IC50 in test [1] is not above 100 nM; in test [2], not above 100 nM; in test [3] it was not above 1000 nM.
For the compound `O=C(O)C(F)(F)F.[2H]C([2H])([2H])c1ccc(S(=O)(=O)NC23CNC(C2)C3)cc1-c1cnc(N)c(-c2cnc(C)s2)n1` [Example 54, 3-(5-Amino-6-(2-methylthiazol-5-yl)pyrazin-2-yl)-N-(2-azabicyclo[2.1.1]hexan-4-yl)-4-(methyl-d3)benzenesulfonamide trifluoroacetate salt], the IC50 in test [1] is not above 100 nM; in test [2], not above 100 nM; in test [3], not above 500 nM.
As to `Cc1ccc(S(=O)(=O)NC23CCC(C#N)(C2)C3)cc1-c1cnc(N)c(-n2ccnn2)n1` [Example 44, 3-(5-Amino-6-(1H-1,2,3-triazol-1-yl)pyrazin-2-yl)-N-(4-cyanobicyclo[2.1.1]hexan-1-yl)-4-methylbenzenesulfonamide Trifluoroacetate Salt], the IC50 in test [1], in test [2] and in test [3] was not above 100 nM each time.
Regarding `Cc1ccc(S(=O)(=O)NC23CCC(C#N)(C2)C3)cc1-c1cnc(N)c(-n2cccn2)n1` [Example 62, 3-(5-Amino-6-(1H-pyrazol-1-yl)pyrazin-2-yl)-N-(4-cyanobicyclo[2.1.1]hexan-1-yl)-4-methylbenzenesulfonamide Trifluoroacetate Salt], the IC50 in test [1], in test [2] and in test [3] was not above 100 nM in each case.
Turning to `Cc1ccc(S(=O)(=O)NC23CC(C#N)(C2)C3)cc1-c1cnc(N)c(-n2cncn2)n1` [Example 23, 3-(5-Amino-6-(1H-1,2,4-triazol-1-yl)pyrazin-2-yl)-N-(3-cyanobicyclo[1.1.1]pentan-1-yl)-4-methylbenzenesulfonamide Trifluoroacetate Salt], the IC50 in test [1] was not above 100 nM; in test [2], not above 100 nM; in test [3] it was not above 500 nM.
As for `Cc1ncc(-c2cc(-c3cc(S(=O)(=O)NC45CC(CO)(C4)C5)ccc3C)cnc2N)s1` [Example 87, 3-(6-amino-5-(2-methylthiazol-5-yl)pyridin-3-yl)-N-(3-(hydroxymethyl)bicyclo[1.1.1]pen-tan-1-yl)-4-methylbenzenesulfonamide], the IC50 in test [1], in test [2] and in test [3] was not above 100 nM in each case.
Consider `Cc1ncc(-c2nc(-c3cc(S(=O)(=O)NC45COC(CO)(C4)C5)cc(F)c3C)cnc2N)s1` [Example 9, 3-(5-Amino-6-(2-methylthiazol-5-yl)pyrazin-2-yl)-5-fluoro-N-(1-(hydroxymethyl)-2-oxabicyclo[2.1.1]hexan-4-yl)-4-methylbenzenesulfonamide trifluoroacetate Salt], for which the IC50 in test [1], in test [2] and in test [3] was not above 100 nM throughout.
